Experimental findings from patent US20200000721A1, “AQUEOUS COMPOSITIONS AND ASSOCIATED CREAM FORMULATIONS” (MedReleaf Corp., priority 2018, published 2020) are described below.

This experiment relates to microbial growth in the aqueous composition. The note with it: 0.09% in aqueous composition of Table 6. The procedure:
Microbiological testing was conducted according to USP <51> and USP (Antimicrobial Effectiveness Test) and USP <61> and <62> (Suitability Testing) in order to compare the effectiveness of 1) 0.09% potassium sorbate 2) 0.045% potassium sorbate and 0.045% Euxul™ 9010 and 3) 0.09% Euxul™ 9010 as an antimicrobial agent for prohibiting microbial growth in the aqueous composition described in Table 6.

Structures are written as SMILES.

In the case of `C/C=C/C=C/C(=O)[O-].[K+]` [potassium sorbate], the “effectiveness as antimicrobial agent (comparison)” value is “as effective as Euxul™ 9010 and/or the combination of Euxul™ 9010 and potassium sorbate”.
